Laboratory results from US11534448B2, “Use of canagliflozin in preparation of antitumor drug” (ZHEJIANG UNIVERSITY, priority 2019, dated 2022).

How the values were obtained:
Type in all cases: cell-based, human
PD-L1 [1] = assay: Flow cytometry of PD-L1 expression on cell surfaces; details: canagliflozin 20 μM + IFNγ 10 ng/mL, 24 h, FIG. 2
Experimental: Two human tumor cell lines, non-small cell lung cancer H1299 cells and osteosarcoma MG63 cells, were selected and respectively inoculated in 6-well plates (1.0×10^6 cells/well), and incubated overnight in incubator at 37° C. with 5% CO2. On the next day, each plate was added with canagliflozin (20 μM) and γ-interferon (IFNγ, 10 ng/mL), and after 24 hours, the PD-L1 expressions on the cell surfaces were detected with flow cytometry.

[2] = tested on: non-small cell lung cancer H1299 cells; assay: Killing effect of activated T cells on co-incubated tumor cells (crystal violet staining); details: H1299 cells treated with canagliflozin 20 μM + IFNγ 10 ng/mL for 24 h, PD-L1 antibody drug as positive control, FIG. 4
Experimental: (§1) PBMC cells were isolated from human blood samples using Ficoll separation solution, and then stimulated with CD3 and CD28 for 3 days to activate T cells in PBMC, and in the meantime, interleukin-2 (IL-2, 50 U/uL) was administrated to maintain the growth of T cells. The activated T cells were co-incubated with the tumor cells that had been treated with canagliflozin (20 μM) and γ-interferon (IFNγ, 10 ng/mL) for 24 hours. A PD-L1 antibody drug was used as a positive control. The killing effect of T cells on tumor cells was investigated, and a crystal violet staining method was employed to investigate the killing effect of T cells on tumor cells.

osteosarcoma MG63 cells = assay: as above; details: MG63 cells treated with canagliflozin 20 μM + IFNγ 10 ng/mL for 24 h, PD-L1 antibody drug as positive control, FIG. 4
Experimental: as §1

PD-L1 [3] = assay: PD-L1 protein stability (cycloheximide chase, Western blotting, gray-scale analysis); details: H1299 cells; IFNγ 10 ng/mL 24 h, then CHX (10 g/mL) + canagliflozin 20 μM vs CHX alone; 0-12 h; FIG. 3
Experimental: The non-small cell lung cancer H1299 cells were inoculated in 6-well plates (1.0×10^6 cells/well), and incubated overnight in incubator at 37° C. with 5% CO2. On the next day, the plates were first added with γ-interferon (IFNγ, 10 ng/mL), and after 24 hours, a protein synthesis inhibitor cycloheximide (CHX, […]) or a co-administration group of CHX ([…])+canagliflozin (20 μM) was administrated simultaneously for these plates. After 0 h, 2 h, 4 h, 6 h, 8 h, and 12 h, respectively, the cells were collected to detect the change of the protein level of PD-L1 in the cells by Western blotting, and a gray-scale analysis was performed to plot a curve for investigating the protein stability.

PD-L1 [4] = assay: Western blotting of PD-L1 total protein expression in tumor cells; details: canagliflozin 20 μM + IFNγ 10 ng/mL, 24 h, FIG. 1
Experimental: Multiple human tumor cells, non-small cell lung cancer H1299 cells and osteosarcoma MG63 cells, were selected and respectively inoculated in 6-well plates (1.0×10^6 cells/well), and incubated overnight in incubator at 37° C. with 5% CO2. On the next day, each plate was added with canagliflozin (20 μM) and γ-interferon (IFNγ, 10 ng/mL), and after 24 hours, the cells were collected and lysed to extract the proteins. The expression of PD-L1 in the cells were detected by Western blotting.

[5] = non-small cell lung cancer H1299 cells

## Cc1ccc([C@@H]2O[C@H](CO)[C@@H](O)[C@H](O)[C@H]2O)cc1Cc1ccc(-c2ccc(F)cc2)s1 [canagliflozin, (1S)-1,5-anhydro-1-C-[3-[[5-(4-fluorophenyl)-2-thienyl]methyl]-4-methylphenyl]-D-glucitol]
PD-L1 [1]; [5]
  PD-L1 protein expression on the cell surface: significantly inhibited the PD-L1 protein expression on the tumor cell surfaces
PD-L1 [1]; osteosarcoma MG63 cells
  PD-L1 protein expression on the cell surface: significantly inhibited the PD-L1 protein expression on the tumor cell surfaces
[2]
  killing effect of T cells on tumor cells: significantly enhanced the killing effect of T cells on tumor cells
Osteosarcoma MG63 cells
  killing effect of T cells on tumor cells: significantly enhanced the killing effect of T cells on tumor cells
PD-L1 [3]
  degradation of the PD-L1 protein: significantly promoted the degradation of the PD-L1 protein
PD-L1 [4]; [5]
  PD-L1 total protein expression: significantly inhibited the PD-L1 total protein expression
PD-L1 [4]; osteosarcoma MG63 cells
  PD-L1 total protein expression: significantly inhibited the PD-L1 total protein expression
